Tests used:
[1] = target: T1, Receptor-interacting serine/threonine-protein kinase 1 (Homo sapiens) (UniProt Q13546); test: Selectivity interaction (KinomeScan (DiscoverX)) EUB0000229b RIPK1; details: at 10 µM
T1 sequence (whole entry): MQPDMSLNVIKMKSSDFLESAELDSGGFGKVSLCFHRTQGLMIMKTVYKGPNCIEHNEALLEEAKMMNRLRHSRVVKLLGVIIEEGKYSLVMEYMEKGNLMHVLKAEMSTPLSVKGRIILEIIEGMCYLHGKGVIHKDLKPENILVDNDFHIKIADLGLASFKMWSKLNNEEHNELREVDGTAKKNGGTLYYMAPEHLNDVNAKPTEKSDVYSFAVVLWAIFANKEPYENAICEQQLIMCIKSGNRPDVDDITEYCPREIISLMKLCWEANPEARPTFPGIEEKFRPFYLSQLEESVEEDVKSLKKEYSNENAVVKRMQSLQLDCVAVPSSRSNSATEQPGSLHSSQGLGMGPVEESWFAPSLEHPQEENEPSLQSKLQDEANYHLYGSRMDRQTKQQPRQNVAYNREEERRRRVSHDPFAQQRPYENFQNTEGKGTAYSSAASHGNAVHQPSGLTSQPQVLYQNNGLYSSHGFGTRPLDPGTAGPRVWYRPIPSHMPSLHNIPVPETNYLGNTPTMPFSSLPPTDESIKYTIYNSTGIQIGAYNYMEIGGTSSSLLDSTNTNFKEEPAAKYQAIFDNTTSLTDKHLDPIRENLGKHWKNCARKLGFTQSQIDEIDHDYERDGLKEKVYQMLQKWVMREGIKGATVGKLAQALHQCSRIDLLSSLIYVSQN

[2] = target: T2, Serine/threonine-protein kinase Nek11 (Homo sapiens) (UniProt Q8NG66); test: Selectivity interaction (KinomeScan (DiscoverX)) EUB0000229b NEK11; details: at 10 µM
T2 sequence (whole entry): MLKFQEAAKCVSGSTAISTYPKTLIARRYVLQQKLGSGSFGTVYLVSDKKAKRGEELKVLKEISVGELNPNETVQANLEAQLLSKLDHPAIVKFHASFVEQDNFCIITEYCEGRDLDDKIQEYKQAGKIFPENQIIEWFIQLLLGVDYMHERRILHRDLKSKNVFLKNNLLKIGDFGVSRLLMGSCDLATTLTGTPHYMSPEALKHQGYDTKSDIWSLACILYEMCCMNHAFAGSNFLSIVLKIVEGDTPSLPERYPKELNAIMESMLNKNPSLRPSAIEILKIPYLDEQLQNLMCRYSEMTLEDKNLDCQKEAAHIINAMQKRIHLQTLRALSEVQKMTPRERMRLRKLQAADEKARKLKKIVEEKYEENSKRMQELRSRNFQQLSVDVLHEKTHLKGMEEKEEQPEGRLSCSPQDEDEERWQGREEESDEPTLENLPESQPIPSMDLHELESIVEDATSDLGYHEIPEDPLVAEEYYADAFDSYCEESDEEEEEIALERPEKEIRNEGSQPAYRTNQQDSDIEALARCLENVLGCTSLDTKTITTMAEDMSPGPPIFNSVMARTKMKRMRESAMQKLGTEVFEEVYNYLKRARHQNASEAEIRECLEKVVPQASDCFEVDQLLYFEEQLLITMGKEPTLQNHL

[3] = target: Insulin-like growth factor 1 receptor (Homo sapiens, UniProt P08069); test: Selectivity interaction (KinomeScan (DiscoverX)) EUB0001079a IGF1R; details: at 1 µM
Chain of Insulin-like growth factor 1 receptor (P08069 31-736 limits assumed): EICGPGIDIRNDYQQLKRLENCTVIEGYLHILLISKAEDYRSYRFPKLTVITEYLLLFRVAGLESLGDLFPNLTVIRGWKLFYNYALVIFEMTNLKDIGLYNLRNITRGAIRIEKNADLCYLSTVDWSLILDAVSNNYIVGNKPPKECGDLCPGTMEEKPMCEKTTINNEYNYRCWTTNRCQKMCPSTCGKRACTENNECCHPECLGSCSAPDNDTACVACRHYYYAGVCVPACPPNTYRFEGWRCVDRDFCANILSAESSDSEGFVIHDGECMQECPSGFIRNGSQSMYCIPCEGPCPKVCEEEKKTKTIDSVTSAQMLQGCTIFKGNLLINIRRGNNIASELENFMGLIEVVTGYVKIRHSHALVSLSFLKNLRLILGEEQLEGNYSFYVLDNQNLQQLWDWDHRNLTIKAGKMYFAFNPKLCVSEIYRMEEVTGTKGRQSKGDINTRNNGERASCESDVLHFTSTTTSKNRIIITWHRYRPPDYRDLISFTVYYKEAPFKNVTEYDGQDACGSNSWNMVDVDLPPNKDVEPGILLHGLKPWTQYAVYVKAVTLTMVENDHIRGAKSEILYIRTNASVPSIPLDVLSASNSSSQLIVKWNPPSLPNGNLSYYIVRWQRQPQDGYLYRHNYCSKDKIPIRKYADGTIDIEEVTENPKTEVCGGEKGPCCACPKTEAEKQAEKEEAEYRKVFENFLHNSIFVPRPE
Chain of Insulin-like growth factor 1 receptor (P08069 741-1367 limits assumed): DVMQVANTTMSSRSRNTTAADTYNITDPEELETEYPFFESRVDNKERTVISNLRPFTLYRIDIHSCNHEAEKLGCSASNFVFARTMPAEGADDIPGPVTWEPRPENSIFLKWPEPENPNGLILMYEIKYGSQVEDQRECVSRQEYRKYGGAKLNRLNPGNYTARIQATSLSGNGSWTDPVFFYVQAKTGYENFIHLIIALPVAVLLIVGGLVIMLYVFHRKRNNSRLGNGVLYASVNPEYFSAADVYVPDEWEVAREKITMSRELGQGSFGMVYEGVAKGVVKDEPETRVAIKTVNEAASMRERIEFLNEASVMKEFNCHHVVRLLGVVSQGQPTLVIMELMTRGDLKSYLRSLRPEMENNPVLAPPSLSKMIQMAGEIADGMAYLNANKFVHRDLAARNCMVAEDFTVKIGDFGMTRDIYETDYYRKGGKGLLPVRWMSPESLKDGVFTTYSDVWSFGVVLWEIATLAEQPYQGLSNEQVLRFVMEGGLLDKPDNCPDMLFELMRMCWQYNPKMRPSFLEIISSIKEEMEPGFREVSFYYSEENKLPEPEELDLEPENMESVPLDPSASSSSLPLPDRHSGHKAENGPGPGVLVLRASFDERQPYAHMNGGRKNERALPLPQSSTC

[4] = test system: Tyrosine-protein kinase ABL1 (Homo sapiens), P00519 [F317I]; test: Selectivity interaction (KinomeScan (DiscoverX)) EUB0001079a ABL1; details: at 1 µM
Chain of Tyrosine-protein kinase ABL1 (Homo sapiens), P00519 [F317I] (P00519 whole entry F317I): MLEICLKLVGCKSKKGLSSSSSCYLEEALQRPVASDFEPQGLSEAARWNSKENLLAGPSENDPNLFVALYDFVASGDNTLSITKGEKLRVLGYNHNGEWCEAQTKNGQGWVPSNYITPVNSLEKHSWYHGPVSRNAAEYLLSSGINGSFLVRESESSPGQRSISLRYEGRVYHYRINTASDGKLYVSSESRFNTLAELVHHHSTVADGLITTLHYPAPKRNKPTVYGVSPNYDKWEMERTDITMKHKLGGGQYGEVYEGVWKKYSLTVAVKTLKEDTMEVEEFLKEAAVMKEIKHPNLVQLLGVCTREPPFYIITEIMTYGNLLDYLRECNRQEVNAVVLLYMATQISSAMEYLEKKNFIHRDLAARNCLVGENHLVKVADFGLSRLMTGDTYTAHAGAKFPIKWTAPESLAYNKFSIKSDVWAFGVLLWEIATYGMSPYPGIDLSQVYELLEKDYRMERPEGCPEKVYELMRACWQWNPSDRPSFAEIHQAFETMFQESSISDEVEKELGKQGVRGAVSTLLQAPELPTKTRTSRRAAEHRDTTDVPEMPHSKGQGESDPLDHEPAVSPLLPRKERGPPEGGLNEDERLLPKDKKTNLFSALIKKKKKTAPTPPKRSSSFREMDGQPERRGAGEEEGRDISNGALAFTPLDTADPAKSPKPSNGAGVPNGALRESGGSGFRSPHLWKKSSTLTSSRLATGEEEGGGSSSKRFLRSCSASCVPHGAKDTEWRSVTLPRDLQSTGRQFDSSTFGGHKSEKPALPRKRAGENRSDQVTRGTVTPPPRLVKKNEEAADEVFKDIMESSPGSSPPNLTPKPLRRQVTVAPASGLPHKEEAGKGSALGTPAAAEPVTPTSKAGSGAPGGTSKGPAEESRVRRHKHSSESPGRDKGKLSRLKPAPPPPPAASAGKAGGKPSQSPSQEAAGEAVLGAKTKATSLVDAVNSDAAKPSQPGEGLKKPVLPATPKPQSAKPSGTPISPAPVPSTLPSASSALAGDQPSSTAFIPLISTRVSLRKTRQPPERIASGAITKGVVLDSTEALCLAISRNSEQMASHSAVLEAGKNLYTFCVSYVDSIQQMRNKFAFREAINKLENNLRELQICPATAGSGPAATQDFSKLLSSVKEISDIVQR

[5] = target: Calcium/calmodulin-dependent protein kinase type II subunit beta (Homo sapiens) (UniProt Q13554); test: Selectivity interaction (KinomeScan (DiscoverX)) EUB0000666a CAMK2B; details: at 10 µM
Progesterone receptor = Progesterone receptor (Homo sapiens, UniProt P06401); test: Selectivity interaction (Progesteron receptor agonist/antagonist FRET assay, human recombinant) EUB0000877a PGR
Chain of Progesterone receptor (P06401 whole entry): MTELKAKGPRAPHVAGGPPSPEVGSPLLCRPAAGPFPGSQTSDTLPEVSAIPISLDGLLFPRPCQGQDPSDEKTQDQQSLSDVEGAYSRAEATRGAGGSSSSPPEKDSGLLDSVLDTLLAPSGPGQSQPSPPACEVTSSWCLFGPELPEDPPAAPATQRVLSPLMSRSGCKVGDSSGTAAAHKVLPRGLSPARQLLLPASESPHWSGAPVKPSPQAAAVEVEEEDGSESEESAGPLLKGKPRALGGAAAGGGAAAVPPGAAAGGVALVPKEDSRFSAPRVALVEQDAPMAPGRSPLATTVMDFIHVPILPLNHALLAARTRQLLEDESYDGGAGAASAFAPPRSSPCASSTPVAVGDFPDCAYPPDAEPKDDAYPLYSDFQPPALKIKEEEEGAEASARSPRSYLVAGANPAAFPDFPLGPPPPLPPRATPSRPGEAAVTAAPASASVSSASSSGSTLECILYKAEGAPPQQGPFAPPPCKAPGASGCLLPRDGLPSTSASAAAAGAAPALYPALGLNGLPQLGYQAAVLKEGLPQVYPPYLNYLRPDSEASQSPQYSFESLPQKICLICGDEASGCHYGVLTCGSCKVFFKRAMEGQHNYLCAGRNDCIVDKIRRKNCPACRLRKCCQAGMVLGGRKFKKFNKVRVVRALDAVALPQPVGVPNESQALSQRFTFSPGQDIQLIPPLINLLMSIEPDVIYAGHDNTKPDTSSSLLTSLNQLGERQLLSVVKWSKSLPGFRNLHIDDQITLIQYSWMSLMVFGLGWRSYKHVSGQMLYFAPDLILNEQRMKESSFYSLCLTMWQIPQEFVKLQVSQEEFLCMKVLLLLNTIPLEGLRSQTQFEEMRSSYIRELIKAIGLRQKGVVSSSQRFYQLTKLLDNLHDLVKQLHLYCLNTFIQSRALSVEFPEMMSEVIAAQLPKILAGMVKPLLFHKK

[6] = target: T3, Serine/threonine-protein kinase TBK1 (Homo sapiens) (UniProt Q9UHD2); test: Selectivity interaction (ActivX KiNativ screen (kinase selectivity in THP-1 cell lysates)) EUB0000639a TBK1; type: subcellular; details: lysate
T3 sequence (whole entry): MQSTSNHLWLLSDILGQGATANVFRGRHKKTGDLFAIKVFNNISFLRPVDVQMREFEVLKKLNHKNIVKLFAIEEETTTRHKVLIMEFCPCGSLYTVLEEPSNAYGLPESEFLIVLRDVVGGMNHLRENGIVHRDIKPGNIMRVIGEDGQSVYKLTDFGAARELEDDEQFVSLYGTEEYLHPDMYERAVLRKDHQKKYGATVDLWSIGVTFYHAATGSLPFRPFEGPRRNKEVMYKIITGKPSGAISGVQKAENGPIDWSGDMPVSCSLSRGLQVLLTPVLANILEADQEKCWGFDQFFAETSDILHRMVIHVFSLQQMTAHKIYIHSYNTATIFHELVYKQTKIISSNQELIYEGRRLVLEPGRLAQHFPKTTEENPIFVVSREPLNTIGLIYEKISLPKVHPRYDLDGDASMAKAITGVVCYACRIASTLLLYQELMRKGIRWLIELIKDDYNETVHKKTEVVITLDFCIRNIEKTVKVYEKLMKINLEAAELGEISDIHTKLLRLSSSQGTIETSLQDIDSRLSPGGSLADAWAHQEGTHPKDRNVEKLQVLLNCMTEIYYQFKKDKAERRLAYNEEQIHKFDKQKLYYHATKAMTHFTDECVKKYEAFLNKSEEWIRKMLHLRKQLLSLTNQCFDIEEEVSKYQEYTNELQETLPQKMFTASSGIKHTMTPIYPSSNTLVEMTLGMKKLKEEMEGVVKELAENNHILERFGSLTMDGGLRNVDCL

[7] = target: Protein kinase C theta type (Homo sapiens, UniProt Q04759); test: Selectivity interaction (KinomeScan (DiscoverX)) EUB0000595a PRKCQ; details: at 10 µM
Chain of Protein kinase C theta type (Q04759 whole entry, looked up): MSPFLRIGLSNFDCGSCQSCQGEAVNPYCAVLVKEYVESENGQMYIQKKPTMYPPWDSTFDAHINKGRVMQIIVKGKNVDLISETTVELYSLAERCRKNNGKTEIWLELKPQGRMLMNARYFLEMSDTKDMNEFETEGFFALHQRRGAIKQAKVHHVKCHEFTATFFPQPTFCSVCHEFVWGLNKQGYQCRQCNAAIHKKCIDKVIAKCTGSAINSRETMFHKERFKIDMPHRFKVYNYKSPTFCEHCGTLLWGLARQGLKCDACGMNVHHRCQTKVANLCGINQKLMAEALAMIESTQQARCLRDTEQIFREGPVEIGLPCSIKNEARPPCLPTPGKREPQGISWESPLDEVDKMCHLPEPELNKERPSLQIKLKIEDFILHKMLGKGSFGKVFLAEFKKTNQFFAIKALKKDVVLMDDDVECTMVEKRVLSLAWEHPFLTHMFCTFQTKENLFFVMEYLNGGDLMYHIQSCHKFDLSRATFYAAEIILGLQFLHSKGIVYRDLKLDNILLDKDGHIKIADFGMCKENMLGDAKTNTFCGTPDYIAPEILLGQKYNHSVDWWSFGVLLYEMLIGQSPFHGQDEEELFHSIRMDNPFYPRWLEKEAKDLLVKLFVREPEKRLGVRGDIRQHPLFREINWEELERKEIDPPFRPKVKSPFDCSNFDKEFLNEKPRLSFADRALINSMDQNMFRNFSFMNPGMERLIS

[8] = target: Cyclin-dependent kinase 15 (Homo sapiens) (UniProt Q96Q40); test: Selectivity interaction (KinomeScan (DiscoverX)) EUB0000618a CDK15; details: at 10 µM
Chain of Cyclin-dependent kinase 15 (Homo sapiens) (Q96Q40 whole entry): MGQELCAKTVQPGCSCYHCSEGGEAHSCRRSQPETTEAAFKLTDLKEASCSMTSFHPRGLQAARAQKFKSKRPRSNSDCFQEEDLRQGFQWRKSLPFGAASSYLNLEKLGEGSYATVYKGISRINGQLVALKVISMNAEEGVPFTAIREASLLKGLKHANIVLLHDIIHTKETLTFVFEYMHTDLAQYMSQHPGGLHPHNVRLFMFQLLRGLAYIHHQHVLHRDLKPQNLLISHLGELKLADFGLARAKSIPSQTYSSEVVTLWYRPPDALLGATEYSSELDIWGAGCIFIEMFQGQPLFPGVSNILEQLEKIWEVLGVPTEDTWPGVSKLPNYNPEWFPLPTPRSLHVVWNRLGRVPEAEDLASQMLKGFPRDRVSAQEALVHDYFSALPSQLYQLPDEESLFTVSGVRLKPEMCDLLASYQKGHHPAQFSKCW

[9] = target: Calcium/calmodulin-dependent protein kinase kinase 1 (Homo sapiens) (UniProt Q8N5S9); test: Selectivity interaction (KinomeScan (DiscoverX)) EUB0001619a CAMKK1; details: at 1 µM
Chain of Calcium/calmodulin-dependent protein kinase kinase 1 (Homo sapiens) (Q8N5S9 whole entry, looked up): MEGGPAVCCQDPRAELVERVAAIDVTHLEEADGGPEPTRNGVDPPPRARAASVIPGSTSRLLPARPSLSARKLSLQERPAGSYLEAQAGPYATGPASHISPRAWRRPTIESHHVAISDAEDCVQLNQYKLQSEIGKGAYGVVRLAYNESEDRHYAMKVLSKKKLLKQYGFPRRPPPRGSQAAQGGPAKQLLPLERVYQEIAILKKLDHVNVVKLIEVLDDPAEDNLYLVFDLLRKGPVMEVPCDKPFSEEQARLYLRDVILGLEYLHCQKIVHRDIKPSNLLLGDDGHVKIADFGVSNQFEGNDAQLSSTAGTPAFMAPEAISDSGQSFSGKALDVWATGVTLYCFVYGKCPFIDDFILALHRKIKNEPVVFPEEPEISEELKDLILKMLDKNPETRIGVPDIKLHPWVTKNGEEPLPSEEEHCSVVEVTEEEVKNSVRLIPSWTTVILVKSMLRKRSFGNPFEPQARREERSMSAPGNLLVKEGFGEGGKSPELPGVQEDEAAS

## COc1cc(N(C)c2ccnc3ccc(C(F)(F)F)cc23)cc(OC)c1OC
[1]
  % binding: 98%
[2]
  % binding: 91%

## Nc1cnc(N2CCc3cc(S(=O)(=O)Nc4c(F)cc(Cl)cc4F)cc(N4CCCC4=O)c32)nc1 [TP-020n]
[3]
  % of control: 90%
[4]
  % of control: 100%

## O=C(NOC[C@H](O)CO)c1ccc(F)c(F)c1Nc1ccc(I)cc1F
[5]
  % of control: 100%

## CCC(=O)N1CC[C@H](Nc2ncnc3c2CN(c2cnc(OC)c(C(F)(F)F)c2)CC3)C1 [LENIOLISIB]
Progesterone receptor
  IC50: > 30 µM

## CC[C@@H]1[C@H](F)C(=O)N[C@@H]1COc1nccc2cc(C(N)=O)c(OC)cc12 [ZIMLOVISERTIB]
[6]; at 0.01 µM
  % of inhibition: -51.9%
[6]; at 0.04 µM
  % of inhibition: -22.2%
[6]; at 0.2 µM
  % of inhibition: -29.9%
[6]; at 1 µM
  % of inhibition: 10%
[6]; at 5 µM
  % of inhibition: 26.2%

## COCC(=O)NC/C=C/c1ccc2ncnc(Nc3ccc(Oc4ccc(C)nc4)c(C)c3)c2c1 [CP-724714]
[7]
  % of control: 100%

## O[C@H]1CC[C@H](Nc2ncc3nc(Nc4c(F)cc(F)cc4F)n([C@H]4CCOC4)c3n2)CC1
[8]
  % of control: 100%

## N#Cc1cccc(-c2c[nH]c3ncnc(N4CCOCC4)c23)c1
[9]
  % of control: 100%

— ChEMBL document CHEMBL5465560, “Selectivity Literature for EUbOPEN Chemogenomic Library” (2024)
